According to US5700481A, “Transdermal drug delivery process” (Takeda Chemical Industries, Ltd., priority 1995, dated 1997):

Legend:
[1] = Transdermal iontophoretic delivery of salmon calcitonin; serum concentration by radioimmunoassay and bioavailability (AUC relative to intravenous) (Example 1); assay type: in vivo, SD rat (male, 7-week aged); settings: for bioavailability (BA): 20 μg per membrane (BSA pretreated), 40 kHz, duty 30%, 15 min x 3 at 5 min interval, vs intravenous AUC
Protocol: (§1) An abdominal skin of a SD rat (male, 7-week aged) was clipped with a hair clipper and treated with a shaver under pentobarbital-anesthetization, and was slightly rubbed with an absorbent cotton (cotton wool) containing a 70% aqueous solution of ethanol for defatting and disinfection. […] Meanwhile, in the Applicator A shown in FIG. 1, the dried drug was dissolved immediately before use by supplying or feeding water to the membrane from the reservoir. In the applicator B illustrated in FIG. 2, the applicator was first attached or adhered to the skin and then the dried drug was dissolved by supplying 120 μl of a distilled water from an injection tip. Further, a silver chloride electrode (2.5 cm^2) as a reference electrode was adhered and fixed in the opposite part to the adhered part of the applicator via an electrically conductible gel comprising 10% PVA gel containing 0.9% of NaCl in a thickness of 2 mm.
Then, a continuous voltage application for 15 minutes was repeated for 3 times at a time interval of 5 minutes in the following manner. That is, the voltage application was effected by a direct-current pulse application (depolarizing constant voltage square pulse application) with a frequency of 40 kHz and a duty (pulse-duty factor) of 30% using the applicator as an anode and the reference electrode as a cathode, with changing the applied voltage as follows. In the respective voltage application, observed electric current in the initial stage of the voltage application was respectively determined for each rat. The current density as a mean value for the subjects are as follows.
(1) Applicator A: voltage 6 V current density about 0.04 mA/cm^2
(2) Applicator B: voltage 12 V current density about 0.24 mA/cm^2
(3) Applicator C: voltage 12 V current density about 0.24 mA/cm^2
(§2) Blood was took from jugular veins (cervical vein) of the rat and centrifuged at a rate of 12,000 rpm for 10 minutes, and the concentration of the salmon calcitonin in the obtained serum sample was determined by a radioimmunoassay method. The results are illustrated in FIG. 3.

[2] = Transdermal iontophoretic delivery of salmon calcitonin with different amounts in drug-retaining membrane (Example 2); assay type: in vivo, SD rat (male, 7-week aged); settings: 12 V
Protocol: as §1, with “Further, a silver chloride electrode (2.5 cm^2) as a reference electrode was adhered and fixed in the opposite part to the adhered part of the applicator via an electrically conductible gel comprising 10% PVA gel containing 0.9% of NaCl in a thickness of 2 mm.” left out
Blood was took from jugular veins (cervical vein) of the rat and centrifuged at a rate of 12,000 rpm for 10 minutes, and the concentration of the salmon calcitonin in the obtained serum sample was determined by a radioimmunoassay method. […]
(§3) Under pentobarbital-anesthetization, an abdominal skin of a SD rat (male, 7-week aged) was clipped with a hair clipper and treated with a shaver, and was slightly rubbed with an absorbent cotton (cotton wool) containing a 70% aqueous solution of ethanol for defatting and disinfection. […] The current density determined in the initial stage of the voltage application was about 0.24 mA/cm^2 as a mean value of the each rat. […]

[3] = Correlation between initial electric current value and AUC value (Example 3); assay type: in vivo, SD rat (male, 7-week aged); settings: in terms of dosage of 20 μg; initial current 0.2 mA/2.5 cm^2 to 0.7 mA/2.5 cm^2 (0.08 to 0.28 mA/cm^2); 48 tests; FIG. 5
Protocol: as §1, with “Further, a silver chloride electrode (2.5 cm^2) as a reference electrode was adhered and fixed in the opposite part to the adhered part of the applicator via an electrically conductible gel comprising 10% PVA gel containing 0.9% of NaCl in a thickness of 2 mm.” left out
Then, a continuous voltage application for 15 minutes was repeated for 3 times at a time interval of 5 minutes in the following manner. […] In the respective voltage application, observed electric current in the initial stage of the voltage application was respectively determined for each rat. […]
as §3

[4] = Transdermal iontophoretic delivery of salmon calcitonin with stepwise decreased voltage (Example 4); assay type: in vivo, male SD rat (7-week aged); settings: for bioavailability (BA): Applicator A, 4 μg per membrane (BAC pretreated), 30 kHz, duty 50%
Protocol: as §2
An abdominal skin of a male SD rat (7-week aged) was clipped with a hair clipper and treated with a shaver under pentobarbital-anesthetization, and was slightly rubbed with an absorbent cotton holding a 70% aqueous solution of ethanol for defatting and disinfection. […] Immediately before the use of the applicator, the dried drug was dissolved by supplying water from the reservoir. Further, a reference electrode was attached and fixed to the skin in the same manner as Example 1.
Then, in the common condition of a frequency of 30 kHz and a duty of 50%, the calcitonin was transdermally delivered according to the following processes:
(1) a process of applying a voltage of 12 V for 5 minutes and, without interruption, applying a voltage of 7.5 V for 40 minutes,
(2) a process of applying a voltage of 12 V for 15 minutes and, without interruption, applying a voltage of 7.5 V for 30 minutes, and
(3) a process of applying a voltage of 12 V for 15 minutes.
The salmon calcitonin concentrations in the serum were evaluated in the same manner as Example 1, and the results are illustrated in FIG. 6.

Substance: salmon calcitonin
- bioavailability (BA) ([1]; Applicator A, applied voltage 6 V): 4.6%
- bioavailability (BA) ([1]; Applicator A, applied voltage 12 V): 16.6%
- bioavailability (BA) ([1]; Applicator B, applied voltage 12 V): 16.6%
- salmon calcitonin concentration in the serum ([1]; applied voltage 12 V (iontophoresis (2) and (3)) in comparison with 6 V (1), FIG. 3): can be increased in comparison with the iontophoresis (1)
- bioavailability (BA) ([2]; Applicator B, drug-retaining membrane (1), 10 μg (BAC pretreated), 40 kHz, duty 30%, 15 min x 3 at 5 min interval): 23.3%
- serum salmon calcitonin concentration ([2]; according to possessing amount (10 or 20 μg), FIG. 4): could be controlled according to the possessing amount
- AUC value [3]: large AUC values
- bioavailability (BA) ([4]; process (1): 12 V for 5 min then 7.5 V for 40 min): 13.6%
- bioavailability (BA) ([4]; process (2): 12 V for 15 min then 7.5 V for 30 min): 14.2%
- bioavailability (BA) ([4]; process (3): 12 V for 15 min): 3.6%
- serum salmon calcitonin concentration ([4]; processes (1) and (2) compared with process (3), FIG. 6): high
